From ChEMBL document CHEMBL6182910, “Design, Synthesis, and Biological Evaluation of 4-(Difluoromethyl)-1H-imidazole-5-carboxylic Acids/4-(3-Cyanophenoxy)pyrimidine-5-carboxylic Acids as P2Y1 Receptor Antagonists for Ischemic Stroke Treatment” (J Med Chem, 2025)
The source made the active and inactive calls. The calls are words filed in the database; no cut-off is given here.

Tests used:
[1] = AUC in brain of male Sprague-Dawley rat at 10 mg/kg, iv measured for 0.083 to 24 hrs by LC-MS/MS analysis; assay type: ADME, organism-based; conditions: in vivo, time 0.083-24 hrs
[2] = Ratio of AUC in brain to plasma of male Sprague-Dawley rat at 10 mg/kg, iv measured for 0.083 to 24 hrs by LC-MS/MS analysis; assay type: ADME, organism-based; conditions: brain and plasma, time 0.083-24 hrs, read-out: Ratio AUC
[3] = Cmax male Sprague-Dawley rat at 10 mg/kg, iv measured up to 24 hrs by LC-MS/MS analysis; assay type: ADME, organism-based; conditions: in vivo
Rattus norvegicus [4] = test: Neuroprotective activity in MCAO-induced brain damage Sprague-Dawley rat model assessed as plasma MDA level at 2.5 to 10 mg/kg, iv administered immediately after arterial occlusion measured after 24 hrs (reference value: 51.7 %); assay type: functional; conditions: dose 2.5-10 mg/kg
[5] = AUC (0 to infinity) male Sprague-Dawley rat at 10 mg/kg, po measured up to 24 hrs by LC-MS/MS analysis; assay type: ADME, organism-based; conditions: in vivo
P2Y purinoceptor 1 = P2Y purinoceptor 1 (Rattus norvegicus, UniProt P49651); test: Antagonist activity at P2Y1 receptor in platelet-rich plasma of rat assessed as inhibition of ADP-induced cytosolic Ca2+ level pretreated for 5 mins followed by ADP addition by FLUO-4 AM dye based analysis; assay type: functional, cell-free
[6] = target: P2Y purinoceptor 1 (Rattus norvegicus) (UniProt P49651); test: Induction of thermal stabilization of P2Y1 receptor in rat platelet-rich plasma at 10 uM incubated for 30 mins followed by heat exposure at 48 to 62 degreeC for 10 mins by CETSA; assay type: cell-free; conditions: time 40.0 min
Rattus norvegicus [7] = test: Neuroprotective activity in MCAO-induced brain damage Sprague-Dawley rat model assessed as plasma MDA level at 2.5 to 10 mg/kg, iv administered immediately after arterial occlusion measured after 24 hrs (reference value: 7.93 nmol/ml); assay type: functional; conditions: dose 2.5-10 mg/kg
[8] = Metabolic stability in human liver microsomes assessed as parent compound remaining at 1 uM measured after 3 hrs in presence of NADPH by LC-MS/MS analysis; assay type: ADME, Microsome; conditions: read-out: Stability
Rattus norvegicus [9] = test: Anti-platelet aggregation in Sprague-Dawley rat assessed as inhibition of ADP-induced platelet aggregation at 10 mg/kg, po measured for 15 mins in presence of 10 uM ADP by cell counter analysis relative to control; assay type: functional; conditions: 0.25 h
CYP3A4 = CYP3A4 (Homo sapiens, UniProt P08684); test: Inhibition of CYP3A4 in human liver microsomes using nifedipine as substrate at 10 uM preincubated for 5 min followed by NADPH addition measured after 120 mins by LC-MS/MS analysis relative to control; assay type: ADME, Microsome; conditions: probe nifedipine, time 125 min
[10] = target: P2Y purinoceptor 12 (Rattus norvegicus) (UniProt Q9EPX4); test: Antagonist activity at P2Y12 receptor in platelet-rich plasma of male Sprague-Dawley rat assessed as inhibition of VASP phosphorylation at Ser239 at 30 uM pretreated for 10 mins followed by PGE1/ADP addition measured after 10 mins by ELISA relative to control; assay type: cell-free; conditions: time 20.0 min
[11] = Ratio of AUC in brain to plasma of male Kunming mouse at 10 mg/kg, iv measured for 0.083 to 24 hrs by LC-MS/MS analysis; assay type: ADME, organism-based; conditions: brain and plasma, time 0.083-24 hrs, read-out: Ratio AUC
Rattus norvegicus [12] = test: Neuroprotective activity in MCAO-induced brain damage Sprague-Dawley rat model assessed as clear nucleoli with uniform staining at 2.5 to 10 mg/kg, iv administered immediately after arterial occlusion measured after 24 hrs by H and E staining based analysis; assay type: functional, organism-based; conditions: dose 2.5-10 mg/kg
HT-22 = test: Neuroprotective activity against H2O2-induced oxidative stress in mouse HT-22 cells assessed as cell viability at 10 uM preincubated for 2 hrs followed by H2O2 addition measured after 24 hrs by MTT assay (reference value: 55 +/- 4.6 %); assay type: functional; conditions: time 26 hrs, read-out: Activity
Plasma = test: Anti-platelet aggregation in platelet-rich plasma of male human assessed as inhibition of ADP-induced platelet aggregation preincubated for 15 mins followed by ADP addition measured up to 10 mins by Born's turbidometric method; assay type: functional, cell-free
[13] = MRT (0 to infinity) male Sprague-Dawley rat at 10 mg/kg, iv measured up to 24 hrs by LC-MS/MS analysis; assay type: ADME, organism-based; conditions: in vivo
[14] = AUC in plasma of male Kunming mouse at 10 mg/kg, iv measured for 0.083 to 24 hrs by LC-MS/MS analysis; assay type: ADME, organism-based; conditions: time 0.083-24 hrs
CYP1A2 = target: T1, CYP1A2 (Homo sapiens, UniProt P05177); test: Inhibition of CYP1A2 in human liver microsomes using phenacetin as substrate at 10 uM preincubated for 5 min followed by NADPH addition measured after 120 mins by LC-MS/MS analysis relative to control; assay type: ADME, Microsome; conditions: probe phenacetin, time 125 min
T1 sequence (P05177 whole entry): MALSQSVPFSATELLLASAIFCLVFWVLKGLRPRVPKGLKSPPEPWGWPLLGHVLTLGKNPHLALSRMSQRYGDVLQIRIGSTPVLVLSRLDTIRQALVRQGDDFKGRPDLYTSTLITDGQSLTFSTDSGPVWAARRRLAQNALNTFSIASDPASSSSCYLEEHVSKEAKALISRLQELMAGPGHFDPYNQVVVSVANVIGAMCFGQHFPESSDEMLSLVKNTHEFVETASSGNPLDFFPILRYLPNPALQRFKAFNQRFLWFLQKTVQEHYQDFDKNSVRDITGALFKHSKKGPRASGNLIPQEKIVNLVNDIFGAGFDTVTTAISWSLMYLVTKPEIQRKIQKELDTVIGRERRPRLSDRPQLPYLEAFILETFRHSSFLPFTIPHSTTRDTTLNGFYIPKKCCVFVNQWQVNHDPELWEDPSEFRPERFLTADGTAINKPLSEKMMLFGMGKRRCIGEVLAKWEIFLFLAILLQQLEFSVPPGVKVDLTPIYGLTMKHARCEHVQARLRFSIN

Rattus norvegicus [15] = test: Neuroprotective activity in MCAO-induced brain damage Sprague-Dawley rat model assessed as brain infarction size at 10 mg/kg, iv administered immediately after arterial occlusion measured after 24 hrs by TTC staining based analysis (reference value: 43.1 %); assay type: functional
[16] = AUC (0 to infinity) male Sprague-Dawley rat at 10 mg/kg, iv measured up to 24 hrs by LC-MS/MS analysis; assay type: ADME, organism-based; conditions: in vivo
CYP2C9 = CYP2C9 (Homo sapiens, UniProt P11712); test: Inhibition of CYP2C9 in human liver microsomes using tolbutamide as substrate at 10 uM preincubated for 5 min followed by NADPH addition measured after 120 mins by LC-MS/MS analysis relative to control; assay type: ADME, Microsome; conditions: probe tolbutamide, time 125 min
[17] = AUC in brain of male Kunming mouse at 10 mg/kg, iv measured for 0.083 to 24 hrs by LC-MS/MS analysis; assay type: ADME, organism-based; conditions: in vivo, time 0.083-24 hrs
Rattus norvegicus [18] = test: Neuroprotective activity in MCAO-induced brain damage Sprague-Dawley rat model assessed as reduction in brain water content at 2.5 to 10 mg/kg, iv administered immediately after arterial occlusion measured after 24 hrs; assay type: functional, organism-based; conditions: dose 2.5-10 mg/kg
[19] = Tmax male Sprague-Dawley rat at 10 mg/kg, po measured up to 24 hrs by LC-MS/MS analysis; assay type: ADME, organism-based; conditions: in vivo

Chain of CYP3A4 (P08684 whole entry): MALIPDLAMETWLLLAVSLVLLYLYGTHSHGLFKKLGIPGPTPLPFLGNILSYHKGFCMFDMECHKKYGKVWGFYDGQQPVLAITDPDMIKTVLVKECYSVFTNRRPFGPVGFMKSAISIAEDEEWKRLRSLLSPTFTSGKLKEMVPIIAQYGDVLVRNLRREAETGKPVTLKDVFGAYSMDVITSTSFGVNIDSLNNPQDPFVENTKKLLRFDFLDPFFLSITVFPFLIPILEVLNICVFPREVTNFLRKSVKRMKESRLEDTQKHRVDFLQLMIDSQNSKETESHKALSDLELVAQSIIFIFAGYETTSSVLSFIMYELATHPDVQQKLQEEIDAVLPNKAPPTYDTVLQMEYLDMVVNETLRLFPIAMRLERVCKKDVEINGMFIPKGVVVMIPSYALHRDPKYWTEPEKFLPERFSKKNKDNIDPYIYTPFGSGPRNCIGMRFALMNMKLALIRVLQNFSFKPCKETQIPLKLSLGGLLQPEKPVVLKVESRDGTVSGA
Chain of P2Y purinoceptor 12 (Rattus norvegicus) (Q9EPX4 whole entry): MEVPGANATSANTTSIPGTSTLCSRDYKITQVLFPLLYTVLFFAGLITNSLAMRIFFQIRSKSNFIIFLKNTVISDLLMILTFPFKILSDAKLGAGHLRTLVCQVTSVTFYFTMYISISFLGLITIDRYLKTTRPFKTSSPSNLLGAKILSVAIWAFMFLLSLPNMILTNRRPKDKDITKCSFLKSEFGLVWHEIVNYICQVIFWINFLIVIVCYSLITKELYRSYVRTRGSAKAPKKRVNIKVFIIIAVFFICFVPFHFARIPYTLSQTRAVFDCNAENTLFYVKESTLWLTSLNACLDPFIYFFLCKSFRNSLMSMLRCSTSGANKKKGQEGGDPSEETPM
Chain of CYP2C9 (P11712 whole entry): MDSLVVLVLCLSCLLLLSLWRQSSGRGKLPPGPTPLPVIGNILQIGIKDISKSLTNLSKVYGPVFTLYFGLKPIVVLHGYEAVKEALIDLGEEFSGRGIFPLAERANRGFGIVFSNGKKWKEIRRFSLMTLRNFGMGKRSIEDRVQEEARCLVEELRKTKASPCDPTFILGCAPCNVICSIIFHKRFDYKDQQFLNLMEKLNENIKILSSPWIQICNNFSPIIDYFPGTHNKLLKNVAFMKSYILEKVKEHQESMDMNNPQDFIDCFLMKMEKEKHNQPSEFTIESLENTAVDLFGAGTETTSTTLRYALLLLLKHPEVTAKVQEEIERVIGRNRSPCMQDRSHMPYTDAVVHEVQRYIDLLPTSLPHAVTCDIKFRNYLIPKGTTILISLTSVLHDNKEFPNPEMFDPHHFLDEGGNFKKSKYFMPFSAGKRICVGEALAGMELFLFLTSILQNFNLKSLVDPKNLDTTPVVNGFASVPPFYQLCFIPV
Chain of P2Y purinoceptor 1 (P49651 whole entry): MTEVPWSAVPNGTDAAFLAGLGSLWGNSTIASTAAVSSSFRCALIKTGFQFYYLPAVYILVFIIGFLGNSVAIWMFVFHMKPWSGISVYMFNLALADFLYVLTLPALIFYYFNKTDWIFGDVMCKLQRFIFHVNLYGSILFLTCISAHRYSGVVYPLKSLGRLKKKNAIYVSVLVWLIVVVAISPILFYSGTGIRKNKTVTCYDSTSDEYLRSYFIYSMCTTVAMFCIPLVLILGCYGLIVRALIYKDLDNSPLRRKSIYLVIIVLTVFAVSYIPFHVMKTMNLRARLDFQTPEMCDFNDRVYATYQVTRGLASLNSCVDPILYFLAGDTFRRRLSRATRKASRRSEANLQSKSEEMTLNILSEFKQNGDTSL
Chain of P2Y purinoceptor 1 (Rattus norvegicus) (P49651 whole entry): as above

| SMILES | AUC [1] | Kp [2] | Cmax [3] | Activity (Rattus norvegicus [4]) | IC50 (P2Y purinoceptor 1) | Activity [6] | Activity (Rattus norvegicus [7]) | remaining at 3 h, 1 µM [8] | inhibition in vivo at 10 mg/kg (Rattus norvegicus [9]) | inhibition at 2 h, 10 µM (CYP3A4) | inhibition [10] | Kp [11] | Activity (Rattus norvegicus [12]) | viability at 10 µM (HT-22) | IC50 (Plasma) | MRT inf [13] | AUC [14] | inhibition at 2 h, 10 µM (CYP1A2) | Activity (Rattus norvegicus [15]) | AUC(0-inf) [16] | other results |
| --- | --- | --- | --- | --- | --- | --- | --- | --- | --- | --- | --- | --- | --- | --- | --- | --- | --- | --- | --- | --- | --- |
| N#Cc1cccc(Oc2nc(-c3cccc(C#N)c3)ncc2C(=O)O)c1 | 18.55 µg·h/g | 0.25 | 48.2 µg/mL | 32% | 2.46 µM | Active | 4.37 nmol/mL | 76.9% | 37.2% | 51.7% | 29.3% | 2.39 | Active | 94.7% | 3.63 µM | 27.2 min | 5.36 µg·h/mL | 6.5% | 11.1% | 23.8 µg·h/mL | AUC ([5]; po, 10 mg/kg, 24 h): 0.986 µg·h/mL; inhibition at 2 h, 10 µM (CYP2C9): 26.3%; AUC [17]: 12.81 µg·h/g; Activity (Rattus norvegicus [18]): Active; Water Content Did Not Return To Blank Level; At 10 Mg/Kg, Compound Showed Comparable Effect To Bptu, Edaravone, Hnw001; Tmax ([19]; po, 10 mg/kg, 24 h): 6.12 min |
| N#Cc1cccc(-c2nc(C(F)F)c(C(=O)O)n2OCc2csc(N)n2)c1 | 1.02 µg·h/g | 0.073 | 44.3 µg/mL | 32% | 2.2 µM | Active | 4.37 nmol/mL | 92.5% | 38.8% | 55.7% | 18.4% | 1.08 | Active | 90.7% | 3.35 µM | 7.5 min | 0.65 µg·h/mL | 9% | 20.9% | 11.4 µg·h/mL | AUC(0-inf) ([5]; male, Sprague-Dawley): 0.036 µg·h/mL; inhibition at 2 h, 10 µM (CYP2C9): 9.7%; AUC [17]: 0.7 µg·h/g; Activity (Rattus norvegicus [18]): Active; Water Content Did Not Return To Blank Level; Tmax ([19]; male, Sprague-Dawley, read-out: Tmax): 10 min |
